Test results taken from US20120101109A1, “ETHANOLAMINE SALT OF N- (3-METHOXY-5-METHYLPYRAZIN-2YL) -2- (4-[1, 3, 4-OXADIAZOLE-2-YL] PHENYL) PYRIDINE-3- SULPHONAMIDE” (ASTRAZENECA AB, priority 2005, published 2012).
Marks after values point to notes of the source that are not given here.

Assays:
[1] = Stability of the salts on storage, assessed by NMR; settings: for stability of the salt: prolonged storage at ambient (400 MHz proton NMR), ammonium salt also vacuum drying at 50° C. overnight
[2] = Intrinsic dissolution rate, fibre optic UV probe with SOTAX dissolution apparatus; format: physicochemical; settings: pH 6.5 buffer, 37° C., 50 mg discs, UV at 260 nm, triplicate
Description: The intrinsic dissolution rate was determined by using a fibre optic UV probe, measuring at 260 nm, with a SOTAX dissolution apparatus. Each of the pots in the dissolution batch was filled with 500 ml of pH 6.5 buffer and heated to 37° C. 50 mg Of each compound was weighed out in triplicate. Each of these samples was placed into a 4 mm dye and compressed at 50 psi for 5 minutes to produce suitable discs. These discs were then placed into the dissolution bath and the UV absorbance measured at regular intervals. Standards were prepared at approximately 20 μg/ml concentrations in pH 6.5 buffer. Scans of the background and corresponding standards were taken and a standard recovery check was produced.

[3] = Solubility of the salts in water, N-methylpyrrolidinone and IMS

Compound	stability of the salt [1]	IDR (intrinsic dissolution rate) [2]	solubility in N-methylpyrrolidinone ([3]; N-methylpyrrolidinone)	solubility in water ([3]; water)	stability of the salt assessed by NMR ([1]; 2 days at 50° C.)
COc1nc(C)cnc1NS(=O)(=O)c1cccnc1-c1ccc(-c2nnco2)cc1.N [Compound (I) Ammonium Salt]	relatively unstable	0.14 mg/min/cm^2	is not	very water soluble	
COc1nc(C)cnc1NS(=O)(=O)c1cccnc1-c1ccc(-c2nnco2)cc1.NCCO [Compound (I) Ethanolamine Salt]		0.84 mg/min/cm^2			stable
COc1nc(C)cnc1[N-]S(=O)(=O)c1cccnc1-c1ccc(-c2nnco2)cc1.[Na+] [Compound (I) Sodium Salt]	very stable	1.37 ^a mg/min/cm^2			
COc1nc(C)cnc1NS(=O)(=O)c1cccnc1-c1ccc(-c2nnco2)cc1 [Compound (I), N-(3-methoxy-5-methylpyrazin-2-yl)-2-(4-[1,3,4-oxadiazol-2-yl]phenyl)pyridine-3-sulphonamide]		0.05 mg/min/cm^2			
